Data from patent publication US4666842A, “Novel aldehyde oxidase and process for producing same” (Kyowa Hakko Kogyo Co., Inc., priority 1982, dated 1987).
“Also recorded” adds a separate entry of the source. Where two headings read alike, the source gives them in different places.

Columns and labels:
[1] = system: aldehyde oxidase (the present enzyme); experiment: Substrate specificity of the present aldehyde oxidase; type: biochemical, Pseudomonas sp No. 6233; details: for Relative activity (substrate specificity): purified enzyme of Example 1, formaldehyde = 100%
Experimental: (§1) The amount of enzyme for decomposing 1 μmol of acetaldehyde in the presence of oxygen at 37° C. in one minute is designated as one unit. Specific activity is expressed by unit per mg of protein. The amount of enzyme protein is measured according to the method of O. H. Lowry, N. J. Rosebrough, A. L. Farr and R. J. Randall, J. Biol. Chem., 193 265(1951) using a copper-Folin reagent.
(§2) The enzyme activity can be measured by allowing the hydrogen peroxide formed from acetaldehyde by the action of the enzyme to react with 4-aminoantipyrine and phenol in the presence of a peroxidase and by quantitatively determining the amount of quinoneimine formed. The reaction is illustrated by the following equations (1) and (2): [drawing 1]
(§3) The above reagents (1)-(6) are put into a test tube, thoroughly shaken, and left standing at 37° C. for 5 minutes. Then, the enzyme solution (7) is added to the test tube to make up a total volume of 3 ml, and the test tube is shaken at 37° C. for 10 minutes to complete the reaction. As a control, the procedure is repeated using water in place of the substrate. The absorbancies of the reaction solution and control at 500 nm are measured, and the difference between the absorbancies is obtained as ΔO.D.
(§4) One unit of aldehyde oxidase is the amount of enzyme for decomposing 1 μmole of acetaldehyde at 37° C. in one minute. The absorbancy coefficient of 1 mM quinoneimine is reported in Clin. Chem., 20, 470(1974) to be 5.33. Therefore, if the absorbancy (ΔO.D.) of 3 ml of the reaction solution at 500 nm as obtained in the procedure (C) is designation as a, titer (A) per ml of the enzyme solution can be given as follows: [formula]
(§5) II. Physical and chemical properties of the aldehyde oxidase of the present invention are described below (hereinafter, the aldehyde oxidase will be sometimes referred to merely as "the present enzyme"). A purified enzyme prepared in Example 1 is used as the aldehyde oxidase.
For example, formaldehyde, acetaldehyde and glyceraldehyde are oxidized to formic acid, acetic acid and glyceric acid respectively. The present enzyme acts upon a wide range of aldehydes, for example, saturated aliphatic aldehydes such as formaldehyde, acetaldehyde, propionaldehyde, n-valeraldehyde, n-hexylaldehyde, heptylaldehyde, etc.; unsaturated aliphatic aldehydes such as crotonaldehyde, citral, etc.; aromatic aldehydes such as benzaldehyde, etc.; D- or L-glyceraldehyde, etc.
In the following Table 1, the relative activity of the present enzyme upon various substrates is set forth.

[2] = system: aldehyde oxidase (the present enzyme); type: biochemical, Pseudomonas sp No. 6233
Experimental: as §1, §2, §3, §4, §5
The present enzyme is inhibited by mercuric chloride and p-chloromercuriphenylsulfonic acid, and thus it appears that an SH group takes part in the reaction.

[3] = biological target: T1, aldehyde oxidase of animal origin (Oryctolagus cuniculus, UniProt P80456); details: known enzyme, literature; cited from earlier work
T1 sequence (P80456 1-1334): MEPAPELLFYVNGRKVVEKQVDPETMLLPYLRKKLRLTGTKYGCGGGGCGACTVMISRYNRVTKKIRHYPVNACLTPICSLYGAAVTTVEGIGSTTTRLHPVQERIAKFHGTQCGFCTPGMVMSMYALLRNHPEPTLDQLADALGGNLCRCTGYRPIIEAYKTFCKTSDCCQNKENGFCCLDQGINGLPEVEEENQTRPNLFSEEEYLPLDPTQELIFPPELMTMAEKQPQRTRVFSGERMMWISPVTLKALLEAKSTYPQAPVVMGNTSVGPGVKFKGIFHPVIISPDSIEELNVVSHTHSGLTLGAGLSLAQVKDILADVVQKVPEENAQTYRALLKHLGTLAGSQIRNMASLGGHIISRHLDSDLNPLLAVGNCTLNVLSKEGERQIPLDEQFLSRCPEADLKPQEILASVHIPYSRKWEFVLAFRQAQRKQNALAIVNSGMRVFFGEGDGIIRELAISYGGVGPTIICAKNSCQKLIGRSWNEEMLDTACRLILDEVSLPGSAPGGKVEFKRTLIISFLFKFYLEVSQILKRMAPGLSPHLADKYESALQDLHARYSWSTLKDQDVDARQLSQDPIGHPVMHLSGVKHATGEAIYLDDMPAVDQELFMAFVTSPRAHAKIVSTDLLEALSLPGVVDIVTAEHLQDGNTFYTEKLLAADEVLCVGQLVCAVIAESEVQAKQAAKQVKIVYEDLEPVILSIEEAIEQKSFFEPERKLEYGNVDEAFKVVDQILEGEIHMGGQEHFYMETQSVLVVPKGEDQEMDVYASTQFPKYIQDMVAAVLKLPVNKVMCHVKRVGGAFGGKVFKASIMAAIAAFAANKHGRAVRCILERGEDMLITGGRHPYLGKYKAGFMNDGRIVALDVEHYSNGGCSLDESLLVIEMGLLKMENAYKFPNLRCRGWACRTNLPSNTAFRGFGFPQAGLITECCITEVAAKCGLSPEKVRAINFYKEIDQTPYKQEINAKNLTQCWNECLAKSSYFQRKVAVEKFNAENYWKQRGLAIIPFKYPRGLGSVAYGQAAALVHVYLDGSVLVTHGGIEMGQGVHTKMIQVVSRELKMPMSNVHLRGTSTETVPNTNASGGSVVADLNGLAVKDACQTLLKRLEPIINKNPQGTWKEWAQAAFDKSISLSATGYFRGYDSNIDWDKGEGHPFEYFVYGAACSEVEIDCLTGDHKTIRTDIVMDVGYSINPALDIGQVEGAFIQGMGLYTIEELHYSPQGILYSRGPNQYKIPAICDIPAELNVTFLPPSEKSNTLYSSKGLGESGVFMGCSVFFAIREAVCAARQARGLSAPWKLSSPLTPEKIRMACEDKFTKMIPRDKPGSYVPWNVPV

[4] = biological target: T1, aldehyde oxidase of animal origin; type: biochemical
Source text: *aldehyde oxidase of animal origin for comparison purposes.

[5] = concentration 0.1 mM, none = 100

## C/C=C/C=O [Crotonaldehyde]
[1]
  action of the present enzyme upon the substrate: acts upon
  Relative activity (substrate specificity): 260%

## ON=Cc1ccccc1O [Salicylaldoxime]
[2]; 1000 µM
  Relative activity (%): 91%

## CC(C)=CCCC(C)=CC=O [Citral]
[1]
  action of the present enzyme upon the substrate: acts upon
  Relative activity (substrate specificity): 291%

## CC(=O)O [Ca(CH3 COO)2]
[2]; 1000 µM
  Relative activity (%): 109%

## CCCCC=O [n-Valeraldehyde]
[1]
  action of the present enzyme upon the substrate: acts upon
  Relative activity (substrate specificity): 367%

## CC=O [Acetaldehyde]
[1]
  action of the present enzyme upon the substrate: acts upon
  Relative activity (substrate specificity): 266%

## [Cl-].[Cl-].[Sr+2] [SrCl2]
[2]; concentration 1 mM, none = 100
  Relative activity (%): 94%

## CCC=O [Propionaldehyde]
[1]
  action of the present enzyme upon the substrate: acts upon
  Relative activity (substrate specificity): 285%

## c1ccc2ncccc2c1 [Quinoline]
[1]
  action of the present enzyme upon the substrate: does not act upon
  Relative activity (substrate specificity): 0%

## O=c1[nH]cnc2nc[nH]c12 [Hypoxanthine]
[1]
  action of the present enzyme upon the substrate: does not have any catalytic action
  Relative activity (substrate specificity): 0%
[3]
  action of aldehyde oxidase of animal origin upon the substrate: acts upon

## c1ccc(-c2ccccn2)nc1 [α, α'-Dipyridyl]
[2]; concentration 1 mM, none = 100
  Relative activity (%): 85%

## CCO [Ethanol]
[1]
  action of the present enzyme upon the substrate: does not act upon
  Relative activity (substrate specificity): 0%

## CO [Methanol]
[1]
  action of the present enzyme upon the substrate: does not act upon
  Relative activity (substrate specificity): 0%

## [Ba+2].[Cl-].[Cl-] [BaCl2]
[2]; [5]
  Relative activity (%): 87%

## c1ncc2[nH]cnc2n1 [Purine]
[1]
  action of the present enzyme upon the substrate: does not have any catalytic action
  Relative activity (substrate specificity): 0%
[3]
  action of aldehyde oxidase of animal origin upon the substrate: acts upon

## O=S(=O)([O-])[O-].[Fe+2] [FeSO4]
[2]; [5]
  Relative activity (%): 100%

## CCCCCC=O [n-Hexylaldehyde]
[1]
  action of the present enzyme upon the substrate: acts upon
  Relative activity (substrate specificity): 390%

## [Cl][Hg][Cl] [HgCl2, mercuric chloride]
[2]; [5]
  Relative activity (%): 0%
[2]
  inhibition of the present enzyme: inhibited

## CCCCCCC=O [Heptylaldehyde]
[1]
  action of the present enzyme upon the substrate: acts upon
  Relative activity (substrate specificity): 387%

## [Cl-].[Cl-].[Co+2] [CoCl2]
[2]; concentration 1 mM, none = 100
  Relative activity (%): 104%

## O=S(=O)([O-])[O-].[Mg+2] [MgSO4]
[2]; concentration 1 mM, none = 100
  Relative activity (%): 97%

## O=S(=O)([O-])[O-].[Cu+2] [CuSO4]
[2]; [5]
  Relative activity (%): 20%

## C=C[C@H]1C[N@@]2CC[C@H]1C[C@H]2[C@H](O)c1ccnc2ccc(OC)cc12 [Quinine]
[1]
  action of the present enzyme upon the substrate: does not have any catalytic action; also recorded: does not act upon
  Relative activity (substrate specificity): 0%

## NO [Hydroxylamine]
[2]; concentration 1 mM, none = 100
  Relative activity (%): 110%

## [Cl-].[Cl-].[Zn+2] [ZnCl2]
[2]; concentration 1 mM, none = 100
  Relative activity (%): 103%

## O=S(=O)(O)c1cc[c]([Hg][Cl])cc1 [p-Chloromercuriphenylsulfonic acid, p-chloromercuriphenylsulfonic acid]
[2]; [5]
  Relative activity (%): 0%
[2]
  inhibition of the present enzyme: inhibited

## C=O [Formaldehyde]
[1]
  action of the present enzyme upon the substrate: acts upon
  Relative activity (substrate specificity): 100%

## O=Cc1ccccc1 [Benzaldehyde]
[1]
  action of the present enzyme upon the substrate: acts upon
  Relative activity (substrate specificity): 93%

## c1cnc2c(c1)ccc1cccnc12 [O--Phenanthroline]
[2]; concentration 1 mM, none = 100
  Relative activity (%): 103%

## O=C[C@H](O)CO [D-Glyceraldehyde]
[1]
  action of the present enzyme upon the substrate: acts upon
  Relative activity (substrate specificity): 270%

## O=C[C@@H](O)CO [L-Glyceraldehyde]
[1]
  action of the present enzyme upon the substrate: acts upon
  Relative activity (substrate specificity): 23%

## C[n+]1cccc(C(N)=O)c1 [N'--Methylnicotinamide]
[1]
  action of the present enzyme upon the substrate: does not act upon
  Relative activity (substrate specificity): 0%

## Antimycin A
[4]; concentration 2 × 10^-3 mM, value in brackets, for comparison, 2 µM
  Relative activity (%), aldehyde oxidase of animal origin: 38%
[4]; known aldehyde oxidase
  inhibition of the known aldehyde oxidase of animal origin: strongly inhibited
[2]; concentration 2 × 10^-3 mM, none = 100, 2 µM
  Relative activity (%): 94%
[2]
  inhibition of the present enzyme: not strongly inhibited

## [Cl][Mn][Cl] [MnCl2]
[2]; concentration 1 mM, none = 100
  Relative activity (%): 106%
